Series [1] concerns Human colorectal cancer Colo-205 cells. Briefly: Pharmacodynamic study on mouse Colo-205 model (subcutaneous xenograft). In kind it is in vivo, BALB/c nude mice. Particulars: Colo-205 model, mesylate, 50 mg/kg PO × 28 days. The text has this:
BALB/c nude mice, 6-8 weeks old, weighing 12-14 g, female, provided by Shanghai Lab Animal Research Center (Shanghai Xipuer-Beikai) with an animal certificate No: 2008001682093.
The experiment was started after 3-7 days in the experimental environment when the animals arrived. Animals were housed in IVC (independent air supply system) cages (Four animals per cage) in SPF grade experimental animal facilities. Each cage animal information card contained the number of animals in the cage, sex, strain, receiving date, dosing schedule, experiment number, group and start date of the experiment. All cages, bedding, and drinking water were sterilized before use and were updated twice a week.
4.3 Tumor Cell Inoculation Method
Human colorectal cancer Colo-205 cells (ATCC-CCL-222) were cultured in vitro in monolayer under the conditions of RPMI 1640 medium with 10% fetal bovine serum, 100 U/mL penicillin and 100 μg/mL streptomycin, and 37° C. 5% CO2 incubator. The passage was routinely digested with trypsin-EDTA twice a week. When the cell saturation was up to 80%-90% and reached the requirement, the cells were collected, counted and inoculated. 0.2 mL (5×10^6) Colo-205 cells were subcutaneously inoculated on the right back of each mouse, and mice were randomly grouped and dosed when the average tumor volume reached 163 mm^3.
4.14 mL of lactic acid was added to a large beaker containing 800 mL of deionized water, and the pH was adjusted to 4.0 with 5 N NaOH. Then the volume was fixed to 1,000 mL to obtain 50 mmol/L sodium lactate buffer.
The subcutaneous tumor volume of nude mice was measured 2-3 times a week, and the mice were weighed, and the data were recorded.
4.6 Analysis and Evaluation
Experimental evaluation index: the tumor growth inhibition rate TGI (%) or the relative tumor proliferation rate T/C (%) was used for evaluation, wherein T was the experimental group, and C was the vehicle group.

A short description of series [2]: Pharmacokinetic study in rats. The class given is in vivo, Sprague-Dawley rats. Particulars: for F / Cmax / Tmax / clearance / half-life / AUC(0-t): male Sprague-Dawley rats; for F: iv 2 mg/kg and oral 5 mg/kg; for Cmax / Tmax / clearance / half-life / AUC(0-t): rat, plasma, study dosed iv 2 mg/kg and oral 5 mg/kg, route of this parameter not given; for AUC(0-t): read-out: AUC0-24 h. As for the experimental part:
Healthy adult Sprague-Dawley rats, male, 7-10 weeks old, weighing 240-270 g, provided by Beijing Vital River Laboratory Animal Technology Co., Ltd., with an animal certificate number of 1140070278736.
Test compounds of the invention: example 17, 33, 40, and 57.
Intravenous administration solvent system of compounds: 10% (V/V) NMP and 90% (20% (V/V)) SBE-β-CD in 16.667 mM PBS with a concentration of 1.0 mg/mL.
Oral administration solvent system of compounds: pure water system containing 0.1% hydroxyethyl cellulose and 0.5% Tween-80, with a concentration of 1 mg/mL.
Intravenous administration: 3 male Sprague-Dawley rats of each test compound were injected intravenously after fasting overnight, with a dose of 2 mg/kg, and the dosing volume was 2 mL/kg. […]
Before the administration, and after administration of 0.0833 (iv), 0.25, 0.5, 1, 2, 4, 8, 12, and 24 h, the jugular vein puncture (approximately 0.15 mL per time point) of each animal was performed by collecting blood from polypropylene tubes. All blood samples were transferred to pre-cooled EDTA-K2 test tubes or pre-cooled plastic microcentrifuge tubes containing 3 μL of 0.5 M EDTA-K2 as anticoagulant and placed on wet ice until centrifugation. Each collected blood was centrifuged at 4° C. for 15 minutes, and plasma was collected. All plasma would be stored in a freezer at about −80° C. until LCMS/MS detection.

The next series deals with CDK1/CyclinB (Homo sapiens, UniProt P06493). Kind of series: Determination of CDK activity (Caliper mobility shift, FAM-P8 peptide): CDK1. The conditions noted are these: CDK1/CyclinB; read-out: CDK1 enzymatic inhibitory activity (IC50). The class given is biochemical.
A further series concerns the target CDK4/CycD3 (Homo sapiens, UniProt P11802). Briefly: Determination of CDK activity (Caliper mobility shift, FAM-P8 peptide): CDK4. Particulars: CDK4/CycD3; read-out: CDK4 enzymatic inhibitory activity (IC50). The class given is biochemical. Summed up: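 GST-CDK4(1-303)/GST-CycD3(1-292) was preincubated with compound for 10 min at room temperature, then FAM-P8 peptide and ATP were added; the reaction ran at 28 °C and was stopped with EDTA-containing stop buffer. Peptide conversion was read by Caliper mobility shift. A 10-point dilution series was fitted for IC50.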

For a further series, the target named is CDK7/CyclinH/MAT1 (Homo sapiens, UniProt P50613). Briefly: Determination of CDK activity (Caliper mobility shift, FAM-P8 peptide): CDK7. The class given is biochemical. Particulars: CDK7/CyclinH/MAT1; read-out: CDK7 enzymatic inhibitory activity (IC50). Summed up: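 His-CDK7/GST-MAT1/cyclin H preincubated with compound (10-point series) 10 min at room temperature, then reacted with FAM-P8 peptide plus ATP at 28 °C for a set time before stopping. Peptide conversion read by Caliper mobility shift; converted to % inhibition vs controls and IC50 fitted.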

The target in the next series is CDK6/cycD3 (Homo sapiens, UniProt Q00534). Briefly: Determination of CDK activity (Caliper mobility shift, FAM-P8 peptide): CDK6. The class given is biochemical. The conditions noted are these: CDK6/cycD3; read-out: CDK6 enzymatic inhibitory activity (IC50). A digest of the protocol:
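GST-CDK6(1-326)/cycD3 with FAM-P8 peptide and ATP, after 10 min room-temperature enzyme–compound preincubation; reaction at 28 °C, then EDTA stop. Substrate conversion read by Caliper mobility shift; inhibition from no-compound and no-enzyme controls, IC50 fitted over 10-point dilution in DMSO.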

Another series has as its target CDK2/CycA2 (Homo sapiens, UniProt P24941). Briefly: Determination of CDK activity (Caliper mobility shift, FAM-P8 peptide): CDK2. The class given is biochemical. The conditions noted are these: CDK2/CycA2; read-out: CDK2 enzymatic inhibitory activity (IC50).
The next series has as its target CDK9/cyclinTl (Homo sapiens, UniProt P50750). Kind of series: Determination of CDK activity (Caliper mobility shift, FAM-P8 peptide): CDK9. In kind it is biochemical. Particulars: CDK9/cyclinTl.
Setting [3] is: read-out: CDK9 enzymatic inhibitory activity (IC50).
The mark [4] stands for this setting: rat plasma, at the dose of 10 mg/kg.

Each structure is given as a SMILES string. Like-named read-outs stand apart in the source and are kept apart here.

Chain of CDK7/CyclinH/MAT1 (P50613 whole entry): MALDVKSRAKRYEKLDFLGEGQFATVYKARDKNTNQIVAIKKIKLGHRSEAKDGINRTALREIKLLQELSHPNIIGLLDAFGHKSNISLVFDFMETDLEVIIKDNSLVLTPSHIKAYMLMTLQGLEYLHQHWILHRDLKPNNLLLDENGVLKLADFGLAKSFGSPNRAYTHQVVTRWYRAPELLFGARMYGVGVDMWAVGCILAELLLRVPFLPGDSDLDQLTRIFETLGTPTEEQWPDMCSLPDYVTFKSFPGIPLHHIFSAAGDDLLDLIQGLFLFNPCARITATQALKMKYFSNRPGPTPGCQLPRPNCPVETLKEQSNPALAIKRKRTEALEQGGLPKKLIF
Chain of CDK7/CyclinH/MAT1 (P51946 whole entry partner): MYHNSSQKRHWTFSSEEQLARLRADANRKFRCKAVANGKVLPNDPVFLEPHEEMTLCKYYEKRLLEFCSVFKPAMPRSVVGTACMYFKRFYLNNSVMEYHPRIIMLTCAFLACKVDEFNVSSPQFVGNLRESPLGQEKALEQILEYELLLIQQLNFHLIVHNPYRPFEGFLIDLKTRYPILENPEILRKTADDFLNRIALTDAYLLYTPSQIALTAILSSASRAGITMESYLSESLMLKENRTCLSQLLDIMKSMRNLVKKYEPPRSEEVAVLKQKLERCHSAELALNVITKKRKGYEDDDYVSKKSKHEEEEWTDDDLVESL
Chain of CDK7/CyclinH/MAT1 (P51948 whole entry partner): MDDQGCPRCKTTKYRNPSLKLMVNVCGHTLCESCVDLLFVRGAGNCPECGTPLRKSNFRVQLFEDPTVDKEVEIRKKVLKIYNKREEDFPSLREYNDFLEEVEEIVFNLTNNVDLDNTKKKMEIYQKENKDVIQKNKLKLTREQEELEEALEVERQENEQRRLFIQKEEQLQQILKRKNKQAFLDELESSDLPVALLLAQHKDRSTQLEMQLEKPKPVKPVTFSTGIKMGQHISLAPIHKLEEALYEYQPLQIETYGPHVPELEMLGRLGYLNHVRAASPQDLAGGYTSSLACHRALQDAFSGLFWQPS
Chain of CDK9/cyclinTl (P50750 whole entry): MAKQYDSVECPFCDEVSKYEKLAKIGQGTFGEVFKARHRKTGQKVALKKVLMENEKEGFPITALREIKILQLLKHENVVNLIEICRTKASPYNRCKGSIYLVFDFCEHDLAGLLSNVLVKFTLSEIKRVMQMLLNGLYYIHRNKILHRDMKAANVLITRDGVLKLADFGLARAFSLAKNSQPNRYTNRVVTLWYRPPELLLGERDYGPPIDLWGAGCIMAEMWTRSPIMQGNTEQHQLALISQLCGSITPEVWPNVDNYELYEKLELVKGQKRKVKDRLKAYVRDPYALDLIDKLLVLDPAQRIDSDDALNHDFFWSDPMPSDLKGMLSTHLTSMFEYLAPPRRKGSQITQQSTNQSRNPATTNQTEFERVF
Chain of CDK9/cyclinTl (O60563 whole entry partner): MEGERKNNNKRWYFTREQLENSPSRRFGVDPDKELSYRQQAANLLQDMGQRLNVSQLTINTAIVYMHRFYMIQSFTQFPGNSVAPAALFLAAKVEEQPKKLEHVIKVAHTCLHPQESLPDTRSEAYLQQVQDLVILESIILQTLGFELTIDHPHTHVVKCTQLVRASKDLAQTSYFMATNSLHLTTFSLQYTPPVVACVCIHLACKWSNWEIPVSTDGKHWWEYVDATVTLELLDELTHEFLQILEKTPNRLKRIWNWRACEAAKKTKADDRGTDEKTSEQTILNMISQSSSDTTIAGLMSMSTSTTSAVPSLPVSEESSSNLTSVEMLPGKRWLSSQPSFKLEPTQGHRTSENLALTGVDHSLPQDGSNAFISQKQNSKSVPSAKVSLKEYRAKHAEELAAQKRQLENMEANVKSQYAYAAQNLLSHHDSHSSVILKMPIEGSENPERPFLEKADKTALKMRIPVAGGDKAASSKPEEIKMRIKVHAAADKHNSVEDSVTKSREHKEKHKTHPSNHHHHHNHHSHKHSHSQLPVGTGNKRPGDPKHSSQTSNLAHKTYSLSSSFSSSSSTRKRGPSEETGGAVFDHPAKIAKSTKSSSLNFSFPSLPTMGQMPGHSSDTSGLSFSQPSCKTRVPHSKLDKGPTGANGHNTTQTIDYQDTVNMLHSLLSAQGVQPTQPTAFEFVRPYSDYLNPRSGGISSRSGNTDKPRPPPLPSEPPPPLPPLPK
Chain of CDK6/cycD3 (Q00534 whole entry): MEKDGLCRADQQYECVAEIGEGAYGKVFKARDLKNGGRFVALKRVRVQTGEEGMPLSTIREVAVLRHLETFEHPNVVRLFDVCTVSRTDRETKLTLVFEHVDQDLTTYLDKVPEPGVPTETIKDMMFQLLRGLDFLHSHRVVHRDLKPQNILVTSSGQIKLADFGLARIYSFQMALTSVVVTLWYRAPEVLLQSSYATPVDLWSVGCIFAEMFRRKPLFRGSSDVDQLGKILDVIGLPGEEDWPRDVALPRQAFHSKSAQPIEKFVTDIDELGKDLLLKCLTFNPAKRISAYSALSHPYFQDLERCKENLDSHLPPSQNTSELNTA
Chain of CDK6/cycD3 (P30281 whole entry partner): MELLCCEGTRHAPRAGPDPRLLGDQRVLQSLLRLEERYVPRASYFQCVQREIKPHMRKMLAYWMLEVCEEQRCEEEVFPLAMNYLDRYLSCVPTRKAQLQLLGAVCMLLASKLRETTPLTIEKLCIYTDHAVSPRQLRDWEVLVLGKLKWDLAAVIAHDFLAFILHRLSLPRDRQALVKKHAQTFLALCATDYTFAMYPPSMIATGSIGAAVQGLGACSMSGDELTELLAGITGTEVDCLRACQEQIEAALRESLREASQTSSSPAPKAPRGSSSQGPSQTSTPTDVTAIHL
Chain of CDK4/CycD3 (P11802 whole entry): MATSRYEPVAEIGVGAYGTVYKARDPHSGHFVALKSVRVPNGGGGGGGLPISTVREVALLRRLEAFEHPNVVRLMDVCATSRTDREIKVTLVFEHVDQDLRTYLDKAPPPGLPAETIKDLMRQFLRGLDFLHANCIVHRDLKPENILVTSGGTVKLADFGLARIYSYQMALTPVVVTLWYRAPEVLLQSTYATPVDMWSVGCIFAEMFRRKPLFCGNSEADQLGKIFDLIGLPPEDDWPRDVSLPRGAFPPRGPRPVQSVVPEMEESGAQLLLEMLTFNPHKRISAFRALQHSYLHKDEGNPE
Chain of CDK4/CycD3 (P30281 whole entry partner): as the sequence (P30281 whole entry partner) above
Chain of CDK1/CyclinB (P06493 whole entry): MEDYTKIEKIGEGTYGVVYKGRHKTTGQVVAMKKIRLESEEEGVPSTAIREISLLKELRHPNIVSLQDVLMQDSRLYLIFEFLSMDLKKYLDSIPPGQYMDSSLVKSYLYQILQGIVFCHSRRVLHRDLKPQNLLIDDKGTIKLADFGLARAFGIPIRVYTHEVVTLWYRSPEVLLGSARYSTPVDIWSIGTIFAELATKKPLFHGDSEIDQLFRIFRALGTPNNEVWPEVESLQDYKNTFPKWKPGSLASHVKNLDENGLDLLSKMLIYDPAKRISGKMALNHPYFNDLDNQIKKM
Chain of CDK1/CyclinB (P14635 whole entry partner): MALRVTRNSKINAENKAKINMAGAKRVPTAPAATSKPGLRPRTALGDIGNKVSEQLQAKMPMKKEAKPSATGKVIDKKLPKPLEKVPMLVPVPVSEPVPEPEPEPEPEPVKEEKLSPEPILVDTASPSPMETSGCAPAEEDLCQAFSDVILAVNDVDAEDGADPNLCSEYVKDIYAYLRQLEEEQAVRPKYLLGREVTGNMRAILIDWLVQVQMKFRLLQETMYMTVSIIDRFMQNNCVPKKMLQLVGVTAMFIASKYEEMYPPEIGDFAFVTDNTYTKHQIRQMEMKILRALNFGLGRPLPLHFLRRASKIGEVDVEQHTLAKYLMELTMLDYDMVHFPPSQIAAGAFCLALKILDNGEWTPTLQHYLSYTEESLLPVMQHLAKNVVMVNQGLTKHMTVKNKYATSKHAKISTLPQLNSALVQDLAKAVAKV

On to `CCN1CCN(Cc2ccc(Nc3ncc(F)c(-c4cc(F)c5nc(C)n(C(C)C)c5c4)n3)nc2)CC1` [Abemaciclib, reference compound], for which, in series [1] (baseline at start of dosing), the “Tumor volume (day 0)” value is listed as 198 mm^3. Also, the “Tumor volume (day 28)” value in series [1] is reported as 749 mm^3. Also, the “TGI tumor growth inhibition rate” value in series [1] (day 28) worked out at 74.5%.

Turning to `CCN1CCC(C(O)c2ccc(Nc3ncc(F)c(-c4cc(F)c5nc(C)n(C(C)C)c5c4)n3)nc2)CC1` (single isomer, unassigned) [Example 40, (R or S)-(1-ethylpiperidin-4-yl)(6-((5-fluoro-4-(4-fluoro-1-isopropyl-2-methyl-1H-benzo [d]imidazol-6-yl)pyrimidin-2-yl)amino)pyridin-3-yl) methanol], in series [2], the F was 13.3%, the concentration peaked (Cmax) at 12.9 ng/mL, the time to peak (Tmax) worked out at 4 h and the clearance was determined as 72.8 mL/min/kg. For the same compound, in series [2], the half-life is 11.9 h and the AUC(0-t) was 132 ng·h/mL. Moreover, the IC50 on CDK1/CyclinB is under 100 nM. The 50% inhibitory concentration (IC50) on CDK4/CycD3 is under 100 nM. Moreover, the 50% inhibitory concentration (IC50) at CDK7/CyclinH/MAT1 fell in the range of 500 to 1000 nM. Further, the IC50 at CDK6/cycD3 is under 100 nM. The IC50 on CDK2/CycA2 was under 100 nM. At CDK9/cyclinTl (setting [3]), the half-inhibitory concentration (IC50) is under 100 nM.

On to `C=C(c1ccc(Nc2ncc(F)c(-c3cc(F)c4nc(C)n(C(C)C)c4c3)n2)nc1)C1CCN(CC)CC1` [Example 33, N-(5-(1-(1-ethylpiperidin-4-yl)vinyl)pyridin-2-yl)-5-fluoro-4-(4-fluoro-1-isopropyl-2-methyl-1H-benzo[d]imidazol-6-yl) pyrimidin-2-amine], for which, in series [2], the F amounted to 43.7%, the highest level (Cmax) was 161 ng/mL, the time to peak (Tmax) came out at 8 h and the clearance turned out to be 12.1 mL/min/kg. In addition, in series [2], the half-life was 8.19 h and the AUC(0-t) was determined as 2570 ng·h/mL. For the same compound, in series [2] (setting [4]), the “clearance in rat plasma (in words)” value is “lower clearance”, the “half-life in rat plasma (in words)” value was “longer half-life” and the “level of exposure at 24 h in rat plasma (in words)” value is listed as “high level of exposure”. Moreover, at CDK1/CyclinB, the IC50 lay in the range of 100 to 500 nM. The IC50 at CDK4/CycD3 was under 100 nM. For the same compound, at CDK7/CyclinH/MAT1, the IC50 is 1000 to 10000 nM. In addition, the IC50 on CDK6/cycD3 is under 100 nM. The half-inhibitory concentration (IC50) at CDK2/CycA2 is under 100 nM. Further, the concentration for half-maximal inhibition (IC50) on CDK9/cyclinTl (setting [3]) is under 100 nM.

For the compound `CC(=C1CCN(C)CC1)c1ccc(Nc2ncc(F)c(-c3cc(F)c4nc(C)n(C(C)C)c4c3)n2)nc1` [Example 62], the IC50 is 500 to 1000 nM at CDK1/CyclinB; under 100 nM on CDK4/CycD3; 1000 to 10000 nM at CDK7/CyclinH/MAT1; 500 to 1000 nM at CDK6/cycD3; 100 to 500 nM at CDK2/CycA2; 500 to 1000 nM at CDK9/cyclinTl (setting [3]).

Regarding `Cc1nc2c(F)cc(-c3nc(Nc4ccc([C@@H](C)C5CCN(C6CC6)CC5)cn4)ncc3F)cc2n1C(C)C` [Example 76], the 50% inhibitory concentration (IC50) was 500 to 1000 nM at CDK1/CyclinB; under 100 nM at CDK4/CycD3; 1000 to 10000 nM at CDK7/CyclinH/MAT1; 100 to 500 nM on CDK6/cycD3; 100 to 500 nM at CDK2/CycA2; 100 to 500 nM on CDK9/cyclinTl (setting [3]).

As to `Cc1nc2c(F)cc(-c3nc(Nc4ccc([C@H](O)C5CCN(C)CC5)cn4)ncc3F)cc2n1C(C)C` [Example 49], the IC50 was 100 to 500 nM on CDK1/CyclinB; under 100 nM at CDK4/CycD3; 100 to 500 nM on CDK7/CyclinH/MAT1; under 100 nM on CDK6/cycD3; 100 to 500 nM at CDK2/CycA2; 100 to 500 nM at CDK9/cyclinTl (setting [3]).

With `CCC(c1ccc(Nc2ncc(F)c(-c3cc(F)c4nc(C)n(C(C)C)c4c3)n2)nc1)N1CCN(CC)CC1` (single isomer, unassigned) [Example 2, (R or S)—N-(5-(1-(4-ethylpiperazin-1-yl)propyl)pyridin-2-yl)-5-fluoro-4-(4-fluoro-1-isopropyl-2-methyl-1H-benzo[d]imidazol-6-yl) pyrimidin-2-amine], the 50% inhibitory concentration (IC50) at CDK1/CyclinB is 10000 to 100000 nM; on CDK4/CycD3, under 100 nM; on CDK7/CyclinH/MAT1 it was 1000 to 10000 nM; on CDK6/cycD3, 100 to 500 nM; at CDK2/CycA2, 1000 to 10000 nM; on CDK9/cyclinTl (setting [3]), 1000 to 10000 nM.

Turning to `CCN1CCC(C(O)c2ccc(Nc3ncc(F)c(-c4cc(F)c5nc(C)n(C(C)C)c5c4)n3)nc2)CC1` (racemic) [Example 39, (1-Ethylpiperidin-4-yl)(6-((5-fluoro-4-(4-fluoro-1-isopropyl-2-methyl-1H-benzo[d]imidazol-6-yl)pyrimidin-2-yl)amino)pyridin-3-yl)methanol], the IC50 is under 100 nM at CDK1/CyclinB; under 100 nM on CDK4/CycD3; 100 to 500 nM at CDK7/CyclinH/MAT1; under 100 nM on CDK6/cycD3; under 100 nM at CDK2/CycA2; under 100 nM at CDK9/cyclinTl (setting [3]).

As for `CC[C@H](c1ccc(Nc2ncc(F)c(-c3cc(F)c4nc(C)n(C(C)C)c4c3)n2)nc1)N1CCN(C)CC1` [Example 7], the 50% inhibitory concentration (IC50) was 10000 to 100000 nM on CDK1/CyclinB; under 100 nM on CDK4/CycD3; 1000 to 10000 nM at CDK7/CyclinH/MAT1; 1000 to 10000 nM on CDK6/cycD3; 10000 to 100000 nM at CDK2/CycA2; 10000 to 100000 nM on CDK9/cyclinTl (CDK9 enzymatic inhibitory activity (IC50)).

Take `COCCN1CCC([C@H](C)c2ccc(Nc3ncc(F)c(-c4cc(F)c5nc(C)n(C(C)C)c5c4)n3)nc2)CC1` (single isomer, unassigned) [Example 80]: the IC50 at CDK1/CyclinB was 500 to 1000 nM; on CDK4/CycD3 it was under 100 nM; at CDK7/CyclinH/MAT1 it was 1000 to 10000 nM; at CDK6/cycD3, 100 to 500 nM; on CDK2/CycA2 it was 100 to 500 nM; at CDK9/cyclinTl (setting [3]) it was 100 to 500 nM.

The record behind these values is patent US11179391B2, “Compound with kinase inhibitory activity and preparation method and use thereof” (priority 2017, dated 2021).
